Consider one compound from article PMC6934184, “Selective DNA-PKcs inhibition extends the therapeutic index of localized radiotherapy and chemotherapy” (The Journal of Clinical Investigation, 2019).

The experiment deals with T1, CSNK2A1 (CK2 alpha 1) (Homo sapiens, UniProt P68400).
T1 construct: purchased Thermo Fisher Scientific (Life Technologies) SelectScreen
The experiment can be described thus: SelectScreen Z'LYTE. The class given is biochemical. In short, it runs like this:
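Compound tested in SelectScreen activity assays, Z'LYTE for CSF1R, CDK1/cyclin B and MAP2K6 and Adapta for CAMK1. ATP for CAMK1 was listed as 10, and Km app was used for CSF1R. Results are expressed in percent.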

T1 sequence (P68400 whole entry): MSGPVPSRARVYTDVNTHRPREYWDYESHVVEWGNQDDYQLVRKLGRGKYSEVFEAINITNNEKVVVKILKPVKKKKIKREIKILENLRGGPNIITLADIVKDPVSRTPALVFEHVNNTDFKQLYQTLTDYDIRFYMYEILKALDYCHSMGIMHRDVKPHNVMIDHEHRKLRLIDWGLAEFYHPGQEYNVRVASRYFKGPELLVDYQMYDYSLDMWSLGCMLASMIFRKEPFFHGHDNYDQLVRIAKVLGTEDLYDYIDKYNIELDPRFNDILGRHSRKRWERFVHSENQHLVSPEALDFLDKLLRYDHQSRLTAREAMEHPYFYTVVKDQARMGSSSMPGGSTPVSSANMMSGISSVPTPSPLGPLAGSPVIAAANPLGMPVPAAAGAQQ

One may read the inhibition as the change of the read-out against control, counted positive when it falls. As for `CN(C(=O)CN1CCOCC1)c1ccc2sc3c(-c4cccc5c(=O)cc(N6CC7CCC(C6)O7)oc45)cccc3c2c1` [NU5455], the inhibition at 1 µM came to 7.1%.
